# Legend:
# A. baumannii [1] = assay: Agar dilution MIC, Mueller–Hinton agar with 20% human serum; assay type: cell-based; conditions: Acinetobacter baumannii
# Protocol: Molten Mueller–Hinton agar (19 ml) supplemented with 20% human serum was added to 1 ml of compound at 20× the final concentration, poured immediately into Petri dishes (100 mm diameter) and gently mixed. Then, 2–3 colonies from agar plates were inoculated into CAMHB and incubated overnight under shaking (150 rpm). […] The agar plates were incubated aerobically at 35 ± 2 °C.
# A. baumannii [2] = assay: MIC, broth microdilution in CAMHB supplemented with human serum, read at 100% growth inhibition; assay type: cell-based, Acinetobacter baumannii
# Protocol: MIC determinations were performed using the broth microdilution method and in line with CLSI guidelines M07 and M100 (refs. [37],[38]). Bacterial inocula were prepared by diluting a 0.5 McFarland suspension in CAMHB or lysogeny broth (LB) specifically for A. baylyi isolates. […] MIC values of all of the tested antibiotics were read as the lowest compound concentration inhibiting bacterial growth by naked eye or beyond which the OD600 ceased to decrease.
structure (smiles),measurement,setting,value
CN1C(=O)[C@H](CCCCN)NC(=O)[C@H](CCCN)NCc2cccnc2Sc2cccc(-c3ccc(C(=O)O)cc3)c2CNC(=O)[C@@H]1Cc1c[nH]c2ccccc12 [zosurabalpin],MIC,A. baumannii [1]; ACC00445,0.25 µg/mL
same,MIC,A. baumannii [1]; ACC00535,0.12 µg/mL
same,MIC,A. baumannii [1]; ACC01073,1 µg/mL
same,MIC,A. baumannii [1]; ACC01077,0.25 µg/mL
same,MIC,A. baumannii [1]; ACC01085/AR0307,0.25 µg/mL
same,MIC,"A. baumannii [1]; ATCCBAA747, ATCC BAA-747",0.12 µg/mL
same,MIC,A. baumannii [1]; ROB08706,1 µg/mL
same,MIC,A. baumannii [1]; ROB08708,0.12 µg/mL
same,MIC range,A. baumannii [2]; 129 clinical isolates,≤0.016 to 4 µg/mL
same,MIC,"A. baumannii [2]; ACC01073, CAMHB + 20% HS",2 µg/mL
same,MIC,"A. baumannii [2]; Acinetobacter baumannii, ACC00445, CAMHB + 20% HS, read-out: MIC",0.25 µg/mL
same,MIC,"A. baumannii [2]; Acinetobacter baumannii, ACC00535, CAMHB + 20% HS, read-out: MIC",0.12 µg/mL
same,MIC,"A. baumannii [2]; Acinetobacter baumannii, ACC01073, CAMHB + 20% HS, read-out: MIC",2 µg/mL
same,MIC,"A. baumannii [2]; Acinetobacter baumannii, ACC01077, CAMHB + 20% HS, read-out: MIC",0.25 µg/mL
same,MIC,"A. baumannii [2]; Acinetobacter baumannii, ACC01085 / AR0307, CAMHB + 20% HS, read-out: MIC",0.5 µg/mL
same,MIC,"A. baumannii [2]; Acinetobacter baumannii, ATCC17978, ATCC 17978, CAMHB + 20% HS, read-out: MIC",0.12 µg/mL
same,MIC,"A. baumannii [2]; Acinetobacter baumannii, ATCC19606, ATCC 19606, CAMHB + 20% HS, read-out: MIC",0.5 µg/mL
same,MIC,"A. baumannii [2]; Acinetobacter baumannii, ATCCBAA747, ATCC BAA-747, CAMHB + 20% HS, read-out: MIC",≤ 0.06 µg/mL
same,MIC,"A. baumannii [2]; Acinetobacter baumannii, ROB08701, 129-isolate panel, 20% HS, read-out: MIC",0.06 µg/mL
same,MIC,"A. baumannii [2]; Acinetobacter baumannii, ROB08701, CAMHB + 20% HS, read-out: MIC",≤ 0.06 µg/mL
same,MIC,"A. baumannii [2]; Acinetobacter baumannii, ROB08702, 129-isolate panel, 20% HS, read-out: MIC",0.125 µg/mL
same,MIC,"A. baumannii [2]; Acinetobacter baumannii, ROB08702, CAMHB + 20% HS, read-out: MIC",0.12 µg/mL
same,MIC,"A. baumannii [2]; Acinetobacter baumannii, ROB08703, 129-isolate panel, 20% HS, read-out: MIC",0.5 µg/mL
same,MIC,"A. baumannii [2]; Acinetobacter baumannii, ROB08703, CAMHB + 20% HS, read-out: MIC",2 µg/mL
same,MIC,"A. baumannii [2]; Acinetobacter baumannii, ROB08704, 129-isolate panel, 20% HS, read-out: MIC",0.25 µg/mL
same,MIC,"A. baumannii [2]; Acinetobacter baumannii, ROB08704, CAMHB + 20% HS, read-out: MIC",0.25 µg/mL
same,MIC,"A. baumannii [2]; Acinetobacter baumannii, ROB08705, 129-isolate panel, 20% HS, read-out: MIC",0.06 µg/mL
same,MIC,"A. baumannii [2]; Acinetobacter baumannii, ROB08705, CAMHB + 20% HS, read-out: MIC",0.25 µg/mL
same,MIC,"A. baumannii [2]; Acinetobacter baumannii, ROB08706, 129-isolate panel, 20% HS, read-out: MIC",0.125 µg/mL
same,MIC,"A. baumannii [2]; Acinetobacter baumannii, ROB08706, CAMHB + 20% HS, read-out: MIC",1 µg/mL
same,MIC,"A. baumannii [2]; Acinetobacter baumannii, ROB08707, 129-isolate panel, 20% HS, read-out: MIC",0.03 µg/mL
same,MIC,"A. baumannii [2]; Acinetobacter baumannii, ROB08707, CAMHB + 20% HS, read-out: MIC",≤ 0.06 µg/mL
same,MIC,"A. baumannii [2]; Acinetobacter baumannii, ROB08708, 129-isolate panel, 20% HS, read-out: MIC",0.125 µg/mL
same,MIC,"A. baumannii [2]; Acinetobacter baumannii, ROB08708, CAMHB + 20% HS, read-out: MIC",0.25 µg/mL
same,MIC,"A. baumannii [2]; Acinetobacter baumannii, ROB08709, 129-isolate panel, 20% HS, read-out: MIC",0.03 µg/mL
same,MIC,"A. baumannii [2]; Acinetobacter baumannii, ROB08709, CAMHB + 20% HS, read-out: MIC",≤ 0.06 µg/mL
same,MIC,"A. baumannii [2]; Acinetobacter baumannii, ROB08710, 129-isolate panel, 20% HS, read-out: MIC",0.125 µg/mL
same,MIC,"A. baumannii [2]; Acinetobacter baumannii, ROB08710, CAMHB + 20% HS, read-out: MIC",0.12 µg/mL
same,MIC,"A. baumannii [2]; Acinetobacter baumannii, ROB08961 (LpxM NS), 20% HS, read-out: MIC",4 µg/mL
same,MIC,"A. baumannii [2]; Acinetobacter baumannii, ROB08979 (LptF R322L), 20% HS, read-out: MIC",8 µg/mL
same,MIC,"A. baumannii [2]; Acinetobacter baumannii, ROB08982 (lpxM ISAba1), 20% HS, read-out: MIC",4 µg/mL
same,MIC,"A. baumannii [2]; Acinetobacter baumannii, ROB08985 (LpxM NS), 20% HS, read-out: MIC",4 µg/mL
same,MIC,"A. baumannii [2]; Acinetobacter baumannii, ROB08997 (LptF I323K), 20% HS, read-out: MIC",16 µg/mL
same,MIC,"A. baumannii [2]; Acinetobacter baumannii, ROB08998 (AdeR A91V), 20% HS, read-out: MIC",8 µg/mL
same,MIC,"A. baumannii [2]; Acinetobacter baumannii, ROB09000 (lpxM ISAba1), 20% HS, read-out: MIC",8 µg/mL
same,MIC,"A. baumannii [2]; Acinetobacter baumannii, ROB21530 (LptF W271S), 20% HS, read-out: MIC",16 µg/mL
same,MIC,"A. baumannii [2]; Acinetobacter baumannii, ROB21531 (LptG G40D), 20% HS, read-out: MIC",8 µg/mL
same,MIC,"A. baumannii [2]; Acinetobacter baumannii, ROB21532 (LptF R322C), 20% HS, read-out: MIC",64 µg/mL
same,MIC,"A. baumannii [2]; Acinetobacter baumannii, ROB21533 (LptF I317L), 20% HS, read-out: MIC",64 µg/mL
same,MIC,"A. baumannii [2]; Acinetobacter baumannii, ROB23370 (adeS ISAba1), 20% HS, read-out: MIC",4 µg/mL
same,MIC,"A. baumannii [2]; Acinetobacter baumannii, ROB23371 (AdeS R152K), 20% HS, read-out: MIC",4 µg/mL
same,MIC,"A. baumannii [2]; Acinetobacter baumannii, ROB23373 (AdeS G318S), 20% HS, read-out: MIC",2 µg/mL
same,MIC,"A. baumannii [2]; Acinetobacter baumannii, ROB23377 (AdeS R108S), 20% HS, read-out: MIC",1 µg/mL
same,MIC,"A. baumannii [2]; Acinetobacter baumannii, ROB23380 (adeS ISAba1), 20% HS, read-out: MIC",8 µg/mL

# Reference: PMC10794144, “A novel antibiotic class targeting the lipopolysaccharide transporter” (Nature, 2024)
